ChEMBL document CHEMBL3885861, “Open TG-GATES”
Structures can show the parent of a compound that is named as a salt.

Species: Rattus norvegicus
Assay: Open TG-GATES - Regimen: Single
Assay type: toxicity, organism-based, Sprague-Dawley
Set-up: regimen Single, gender Male, age 6 weeks
Settings: in vivo, ip, 800 mg/kg, route intraperitoneal injection, dose level High; for APTT / Bas / Eos / Fbg / Hb / Ht / Lym / MCH / MCHC / MCV / Mono / Neu / PT / Plat / RBC / Ret / WBC: tissue Blood; for KIDNEY_L / KIDNEY_R / KIDNEY_TOTAL: tissue Kidney; for LIVER: tissue Liver; for A/G / ALP / ALT / AST / BUN / CRE / Ca / Cl / DBIL / GLC / IP / K / LDH / Na / PL / RALB / TBIL / TC / TG / TP / gamma-GTP: tissue Plasma

## CCOC(=O)/C=C\C(=O)OCC [DIETHYL MALEATE]
9 h
  TERMINAL_BW: 191 g
  APTT: 16.8 s
  Bas: 0%
  Eos: 0.8%
  Fbg: 190.4 mg/dL
  Hb: 13.7 g/dL
  Ht: 40.9%
  Lym: 63.6%
  MCH: 21.5 pg
  MCHC: 33.5%
  MCV: 64 fL
  Mono: 8.6%
  Neu: 27.2%
  PT: 12.4 s
  Plat: 126 x10_4/uL
  RBC: 638 x10_4/ul
  Ret: 8.8%
  WBC: 90.6 x10_2/uL
  KIDNEY_L: 0.9 g
  KIDNEY_R: 0.9 g
  KIDNEY_TOTAL: 1.8 g
  LIVER: 7.1 g
  A/G: 2.3
  ALP: 702.8 IU/L
  ALT: 38.6 IU/L
  AST: 101.8 IU/L
  BUN: 19.2 mg/dL
  CRE: 0.4 mg/dL
  Ca: 10.4 mg/dL
  Cl: 106 meq/L
  DBIL: 0 mg/dL
  GLC: 195 mg/dL
  IP: 9.5 mg/dL
  K: 4.9 meq/L
  LDH: 134.8 IU/L
  Na: 137 meq/L
  PL: 115.6 mg/dL
  RALB: 3.6 g/dL
  TBIL: 0.5 mg/dL
  TC: 71.2 mg/dL
  TG: 15 mg/dL
  TP: 5.2 g/dL
  gamma-GTP: 2 IU/L
24 h
  TERMINAL_BW: 198.4 g
  APTT: 15.2 s
  Bas: 0%
  Eos: 0.8%
  Fbg: 183 mg/dL
  Hb: 13.2 g/dL
  Ht: 39.6%
  Lym: 79.2%
  MCH: 21.7 pg
  MCHC: 33.4%
  MCV: 65 fL
  Mono: 5.2%
  Neu: 15%
  PT: 11.7 s
  Plat: 122 x10_4/uL
  RBC: 609.6 x10_4/ul
  Ret: 8.5%
  WBC: 126.8 x10_2/uL
  KIDNEY_L: 0.9 g
  KIDNEY_R: 0.9 g
  KIDNEY_TOTAL: 1.8 g
  LIVER: 8.9 g
  A/G: 2.3
  ALP: 756.4 IU/L
  ALT: 34.8 IU/L
  AST: 67.6 IU/L
  BUN: 18 mg/dL
  CRE: 0.4 mg/dL
  Ca: 10.5 mg/dL
  Cl: 106.4 meq/L
  DBIL: 0.022 mg/dL
  GLC: 189.2 mg/dL
  IP: 7.2 mg/dL
  K: 5.2 meq/L
  LDH: 123 IU/L
  Na: 138.6 meq/L
  PL: 135.8 mg/dL
  RALB: 3.7 g/dL
  TBIL: 0.4 mg/dL
  TC: 69.4 mg/dL
  TG: 98 mg/dL
  TP: 5.3 g/dL
  gamma-GTP: 2 IU/L
